This test has as its target T1, JAK 2 (Homo sapiens, UniProt O60674).
T1 construct: purchased Eurofins Scientific (assay service)
Kind of test: JAK Human TK kinase enzymatic radiometric assay (Eurofins), JAK 2. Type of test: biochemical. More on the design: unit not given here. As to conditions: value close to 100 indicates low JAK activity of the compound. From the text:
For the compounds of the Examples, JAK activity of each of the compounds was verified using the JAK Human TK Kinase Enzymatic Radiometric Kinase Profiler Assay service provided by Eurofins Scientific.
The activity was verified after inducing a reaction at the JAK 1, 2 and 3 active sites using radioactively labeled ATP.

T1 sequence (O60674 whole entry): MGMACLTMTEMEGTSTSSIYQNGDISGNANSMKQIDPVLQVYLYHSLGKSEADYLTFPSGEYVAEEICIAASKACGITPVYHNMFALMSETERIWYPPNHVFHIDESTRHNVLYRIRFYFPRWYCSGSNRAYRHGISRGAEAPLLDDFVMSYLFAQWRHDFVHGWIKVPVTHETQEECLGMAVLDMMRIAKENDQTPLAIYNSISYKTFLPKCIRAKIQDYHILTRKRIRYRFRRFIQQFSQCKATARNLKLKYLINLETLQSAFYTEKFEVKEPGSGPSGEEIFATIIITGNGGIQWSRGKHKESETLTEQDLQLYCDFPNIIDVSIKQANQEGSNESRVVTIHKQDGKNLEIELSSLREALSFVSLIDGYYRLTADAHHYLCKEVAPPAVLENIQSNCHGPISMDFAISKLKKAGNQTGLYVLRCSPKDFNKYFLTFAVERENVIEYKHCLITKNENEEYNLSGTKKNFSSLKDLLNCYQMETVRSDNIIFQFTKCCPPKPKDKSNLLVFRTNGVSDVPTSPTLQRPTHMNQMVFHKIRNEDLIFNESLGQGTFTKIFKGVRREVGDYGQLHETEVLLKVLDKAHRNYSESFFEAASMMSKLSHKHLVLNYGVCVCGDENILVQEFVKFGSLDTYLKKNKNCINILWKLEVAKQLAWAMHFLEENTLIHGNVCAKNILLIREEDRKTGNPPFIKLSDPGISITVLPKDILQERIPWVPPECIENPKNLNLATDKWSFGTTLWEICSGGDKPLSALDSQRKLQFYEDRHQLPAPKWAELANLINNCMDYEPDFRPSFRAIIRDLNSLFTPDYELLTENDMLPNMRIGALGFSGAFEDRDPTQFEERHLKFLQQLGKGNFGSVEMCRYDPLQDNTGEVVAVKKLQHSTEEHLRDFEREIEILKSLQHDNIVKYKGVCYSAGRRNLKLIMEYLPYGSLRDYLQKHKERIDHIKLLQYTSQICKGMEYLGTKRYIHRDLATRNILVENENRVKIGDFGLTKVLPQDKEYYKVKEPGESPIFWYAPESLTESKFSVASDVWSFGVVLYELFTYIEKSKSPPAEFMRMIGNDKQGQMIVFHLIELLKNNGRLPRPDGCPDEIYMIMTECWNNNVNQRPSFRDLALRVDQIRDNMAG

Turning to `C[C@@H]1CCN(C(=O)CC#N)C[C@@H]1N(C)c1ncnc2c1ccn2C(=O)Nc1ccccc1N` [Example 1, N-(2-aminophenyl)-4-(((3R,4R)-1-(2-cyanoacetyl)-4-methylpiperidin-3-yl) (methyl)amino)-7H-pyrrolo[2,3-d]pyrimidine-7-carboxamide], the “JAK 2 Activity” value (0.1 nM) is recorded as 100, the “JAK 2 Activity” value (1 nM) was determined as 92, the “JAK 2 Activity” value (10 nM) is 69 and the “JAK 2 Activity” value (100 nM) is recorded as 16.

The values above are taken from patent publication EP4741395A1, “NOVEL COMPOUND SENSITIVE TO NITROGEN MONOXIDE AND PHARMACEUTICAL COMPOSITION COMPRISING SAME” (Omniamed Co. Ltd, priority 2023, dated 2025).
